Results: patent US20260199350A1, “FLAVONES, QUINOLINONES, QUINAZOLINONES, AND AURONES, AND USES IN CK2-MEDIATED DISEASES” (Salk Institute for Biological Studies, priority 2022, published 2026)
In brackets after ≈: the same amount, converted by molar mass. Where two headings read alike, the source gives them in different places.

Assays:
Aqueous solubility = type: physicochemical
IL-6 secretion = IL-6 secretion assay in astrocytes (Promega Lumit IL-6 kit); type: cell-based, human; conditions: Homo sapiens, Astrocyte, read-out: IL6-Inhib.
Procedure: IL-6 secretion assay. HCAs were plated at 20,000 cells per well in white clear bottom 96-well plates. Two to three days later, media was removed and replaced with media containing 10 ng/mL IL1B and compound dilution series. Five hours later, plates were processed using the Lumit IL-6 Assay Kit (Promega W6030) according to the manufacturer's instructions.
• ^1Radiometric kinase assay from Eurofins. Performed in astrocytes with a Promega Lumit IL-6 kit. A series of halogenated flavones was generated and assayed (Table 3).

CK2A1 = target: T1, CK2A1 (Homo sapiens, UniProt P68400); experiment: Radiometric kinase assay (Eurofins), CK2A1; type: biochemical
T1 construct: purchased Eurofins
T1 sequence (P68400 whole entry): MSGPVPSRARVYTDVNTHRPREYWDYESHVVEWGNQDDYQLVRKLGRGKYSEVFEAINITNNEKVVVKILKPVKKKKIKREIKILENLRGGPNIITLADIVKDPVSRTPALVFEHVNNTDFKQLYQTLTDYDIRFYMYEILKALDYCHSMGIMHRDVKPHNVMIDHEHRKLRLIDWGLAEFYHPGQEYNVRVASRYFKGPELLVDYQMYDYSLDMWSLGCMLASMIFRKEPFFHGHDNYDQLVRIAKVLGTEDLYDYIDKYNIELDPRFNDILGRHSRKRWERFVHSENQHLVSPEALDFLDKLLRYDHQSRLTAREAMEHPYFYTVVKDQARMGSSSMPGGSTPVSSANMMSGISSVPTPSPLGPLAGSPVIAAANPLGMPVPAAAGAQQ
Excerpt: FIGS. 4A-4F characterize flavones for in vitro and in-cell CK2 inhibition. […] Representative of two independent experiments. […] Nonlinear fit was used to calculate IC50. […] Nonlinear fit was used to calculate IC50. […] Nonlinear fit was used to calculate IC50. […] Normalized to DMSO, data are representative of three independent experiments.
(§1) • ^1Radiometric kinase assay from Eurofins. Performed in astrocytes with a Promega Lumit IL-6 kit.

CK2A2 = target: T2, CK2A2 (Homo sapiens, UniProt P19784); experiment: Radiometric kinase assay (Eurofins), CK2A2; type: biochemical
T2 construct: purchased Eurofins
T2 sequence (P19784 whole entry): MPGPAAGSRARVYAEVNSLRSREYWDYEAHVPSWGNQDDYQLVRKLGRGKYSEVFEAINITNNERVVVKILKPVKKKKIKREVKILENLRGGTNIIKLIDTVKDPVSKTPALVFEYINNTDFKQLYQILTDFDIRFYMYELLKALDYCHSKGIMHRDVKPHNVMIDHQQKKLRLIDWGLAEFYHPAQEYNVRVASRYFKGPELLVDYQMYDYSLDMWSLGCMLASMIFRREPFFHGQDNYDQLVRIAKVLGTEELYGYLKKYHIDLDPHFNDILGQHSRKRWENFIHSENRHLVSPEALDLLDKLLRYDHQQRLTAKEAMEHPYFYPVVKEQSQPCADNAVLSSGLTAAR
Excerpt: as §1

[1] = Table 11, read-out: Aqueous Solubility
[2] = Table 11, aurones, read-out: CK2A1 RAD IC50
[3] = Table 11, aurones, read-out: CK2A2 RAD IC50
[4] = aqueous medium (not further specified), Table 8, read-out: Aqueous Solubility
[5] = Table 8, quinazolinones, read-out: CK2A1 RAD IC50
[6] = Table 8, quinazolinones, read-out: CK2A2 RAD IC50
[7] = aqueous (not further specified), Table 3, read-out: Aqueous Solubility
[8] = Table 3, halogenated flavones, read-out: CK2A1 RAD IC50
[9] = Table 3, halogenated flavones, read-out: CK2A2 RAD IC50
[10] = Table 10, aurones, read-out: CK2A1 IC50
[11] = Table 10, aurones, read-out: CK2A2 IC50

COc1ccc2c(c1Br)O/C(=C\c1ccc(O)cc1Br)C2=O [JKT.816A]
solubility (Aqueous solubility; [1]): < 0.01 µM
IC50 (IL-6 secretion; Table 11): > 10000 nM
IC50 (CK2A1; [2]): 119 nM
IC50 (CK2A2; [3]): 1520 nM

O=c1[nH]c(-c2cc(Cl)c(O)c(Cl)c2)nc2c(Br)cc(Br)cc12 [JKT.773B]
solubility (Aqueous solubility; [4]): 24.1 µM (≈ 11.2 µg/mL)
IC50 (IL-6 secretion; Table 8): > 10000 nM
IC50 (CK2A1; [5]): 243 nM
IC50 (CK2A2; [6]): 276 nM

O=c1cc(-c2ccc(O)c(Br)c2)oc2c(Cl)cccc12 [JKT.777A]
solubility (Aqueous solubility; [7]): 14 µM (≈ 4.92 µg/mL)
IC50 (IL-6 secretion; Table 3): 10300 nM
IC50 (CK2A1; [8]): 20 nM
IC50 (CK2A2; [9]): 21 nM

O=c1[nH]c(-c2ccc(O)c(Br)c2)nc2c(Br)cc(Br)cc12 [JKT.734C]
solubility (Aqueous solubility; [4]): > 200 µM
IC50 (IL-6 secretion; Table 8): > 10000 nM
IC50 (CK2A1; [5]): 24 nM
IC50 (CK2A2; [6]): 42 nM

COc1c(Br)cc2c(=O)cc(-c3cc(F)c(O)c(F)c3)oc2c1Br [JKT.753A]
solubility (Aqueous solubility; [7]): 109 µM (≈ 50.5 µg/mL)
IC50 (IL-6 secretion; Table 3): > 10000 nM
IC50 (CK2A1; [8]): > 5000 nM
IC50 (CK2A2; [9]): 1850 nM

COc1cc(-c2cc(=O)c3cc(Br)cc(Br)c3[nH]2)ccc1O [JKT.736A]
solubility (Aqueous solubility; Table 6, read-out: Aqueous Solubility): 10 µM (≈ 4.25 µg/mL)
IC50 (IL-6 secretion; Table 6): 3900 nM
IC50 (CK2A1; Table 6, quinolinones, read-out: CK2A1 RAD IC50): 22 nM
IC50 (CK2A2; Table 6, quinolinones, read-out: CK2A2 RAD IC50): 15 nM

O=c1cc(-c2ccc(O)c(Cl)c2)oc2c(Br)cc(Cl)cc12 [JKT.722A]
solubility (Aqueous solubility; [7]): 27.5 µM (≈ 10.6 µg/mL)
IC50 (IL-6 secretion; Table 3): 2200 nM
IC50 (CK2A1; [8]): 10 nM
IC50 (CK2A2; [9]): 7 nM

O=c1cc(-c2ccc(O)c(Cl)c2)oc2c(Cl)cc(Cl)cc12 [JKT.725A]
solubility (Aqueous solubility; [7]): 39.9 µM (≈ 13.6 µg/mL)
IC50 (IL-6 secretion; Table 3): 4800 nM
IC50 (CK2A1; [8]): 15 nM
IC50 (CK2A2; [9]): 12 nM

COc1ccc2c(=O)cc(-c3ccc(O)c(Cl)c3)oc2c1Br [JKT.787A]
solubility (Aqueous solubility; [7]): < 0.01 µM
IC50 (IL-6 secretion; Table 3): 7700 nM
IC50 (CK2A1; [8]): 24 nM
IC50 (CK2A2; [9]): 16 nM

O=c1[nH]c(-c2ccc(O)c(C(F)(F)F)c2)nc2c(Br)cc(Br)cc12 [JKT.775A]
solubility (Aqueous solubility; [4]): 17.9 µM (≈ 8.31 µg/mL)
IC50 (IL-6 secretion; Table 8): > 10000 nM
IC50 (CK2A1; [5]): 370 nM
IC50 (CK2A2; [6]): 2480 nM

O=C1/C(=C/c2ccc(O)cc2)Oc2c(Br)cc(Br)cc21 [JKT.629A]
solubility (Aqueous solubility; Table 10, read-out: Solubility): 5.6 µM (≈ 2.22 µg/mL)
IC50 (IL-6 secretion; Table 10): 7900 nM
IC50 (CK2A1; [10]): > 5000 nM
IC50 (CK2A2; [11]): > 5000 nM

O=c1[nH]c(-c2cc(F)c(O)c(F)c2)nc2c(Br)cc(Br)cc12 [JKT.774A]
solubility (Aqueous solubility; [4]): 152 µM (≈ 65.5 µg/mL)
IC50 (IL-6 secretion; Table 8): > 10000 nM
IC50 (CK2A1; [5]): 818 nM
IC50 (CK2A2; [6]): 1040 nM

COc1c(Br)cc2c(=O)cc(-c3ccc(O)c(C(F)(F)F)c3)oc2c1Br [JKT.750A]
solubility (Aqueous solubility; [7]): 124 µM (≈ 61.5 µg/mL)
IC50 (IL-6 secretion; Table 3): 2200 nM
IC50 (CK2A1; [8]): 580 nM
IC50 (CK2A2; [9]): 466 nM

O=c1cc(-c2ccc(O)c(C(F)(F)F)c2)oc2c(Br)cccc12 [JKT.751A]
solubility (Aqueous solubility; [7]): 4 µM (≈ 1.54 µg/mL)
IC50 (IL-6 secretion; Table 3): 5000 nM
IC50 (CK2A1; [8]): 635 nM
IC50 (CK2A2; [9]): 637 nM

COc1cc(/C=C2\Oc3c(Br)cc(Br)cc3C2=O)ccc1O [JKT.630A]
solubility (Aqueous solubility; Table 10, read-out: Solubility): 3 µM (≈ 1.28 µg/mL)
IC50 (IL-6 secretion; Table 10): 9800 nM
IC50 (CK2A1; [10]): 211 nM
IC50 (CK2A2; [11]): 274 nM

COc1ccc2c(c1Br)O/C(=C\c1ccc(O)cc1Cl)C2=O [JKT.818A]
solubility (Aqueous solubility; [1]): < 0.01 µM
IC50 (IL-6 secretion; Table 11): > 10000 nM
IC50 (CK2A1; [2]): > 5000 nM
IC50 (CK2A2; [3]): > 5000 nM

O=c1[nH]c(-c2ccc(O)c(Br)c2)nc2c(Br)cccc12 [JKT.827A]
solubility (Aqueous solubility; [4]): 22.4 µM (≈ 8.87 µg/mL)
IC50 (IL-6 secretion; Table 8): > 10000 nM
IC50 (CK2A1; [5]): 281 nM
IC50 (CK2A2; [6]): 860 nM

O=C1/C(=C/c2ccco2)Oc2c(Br)cc(Br)cc21 [JKT.637A]
solubility (Aqueous solubility; Table 10, read-out: Solubility): 52.4 µM (≈ 19.4 µg/mL)
IC50 (IL-6 secretion; Table 10): > 10000 nM
IC50 (CK2A1; [10]): > 5000 nM
IC50 (CK2A2; [11]): > 5000 nM

COc1c(Br)cc2c(c1Br)O/C(=C\c1ccc(O)c(Br)c1)C2=O [JKT.759A]
solubility (Aqueous solubility; [1]): 3.6 µM (≈ 1.82 µg/mL)
IC50 (IL-6 secretion; Table 11): 2300 nM
IC50 (CK2A1; [2]): 57 nM
IC50 (CK2A2; [3]): 44 nM

COc1nc(-c2cc(=O)c3cc(Br)cc(Br)c3o2)ccc1O [JKT.606A]
IC50 (IL-6 secretion; Table 2, astrocytes): 3500 nM
IC50 (CK2A1; Table 2, read-out: CK2A1 RAD IC50): 9 nM
IC50 (CK2A2; Table 2, read-out: CK2A2 RAD IC50): 4 nM

O=c1cc(-c2ccc(O)c(Cl)n2)oc2c(Br)cc(Br)cc12 [JKT.801A]
solubility (Aqueous solubility; Table 4, read-out: Aqueous Solubility): 155 µM (≈ 66.8 µg/mL)
IC50 (IL-6 secretion; Table 4): 4400 nM
IC50 (CK2A1; Table 4, read-out: CK2A1 RAD IC50): 24 nM
IC50 (CK2A2; Table 4, read-out: CK2A2 RAD IC50): 21 nM

COc1c(Br)cc2c(c1Br)O/C(=C\c1ccc(O)c(C(F)(F)F)c1)C2=O [JKT.763A]
solubility (Aqueous solubility; [1]): 7.9 µM (≈ 3.9 µg/mL)
IC50 (IL-6 secretion; Table 11): 2700 nM
IC50 (CK2A1; [2]): 598 nM
IC50 (CK2A2; [3]): 627 nM

COc1ccc2c(=O)cc(-c3ccc(O)c(C(F)(F)F)c3)oc2c1Br [JKT.786A]
solubility (Aqueous solubility; [7]): < 0.01 µM
IC50 (IL-6 secretion; Table 3): > 10000 nM
IC50 (CK2A1; [8]): 2480 nM
IC50 (CK2A2; [9]): 1710 nM
